{
  "source": "patent US20080103127A1",
  "about": "“METHODS FOR TREATING DISRUPTIVE BEHAVIOR DISORDERS” (priority 2006, published 2008)",
  "key": {"submissive rats [1]": {"system": "submissive rats", "conditions": "cited from earlier work; for submissive behavior: treatment of the submissive subject for 3 weeks"}, "dominant rats": {"system": "dominant rats", "conditions": "administered to dominant rats; cited from earlier work"}, "submissive rats [2]": {"system": "submissive rats", "assay": "Reduction of Submissive Behavior Model (RSBM) of depression, dominant-submissive rat food competition test", "type": "in vivo, Sprague-Dawley rats", "description": "In this study, the effects of COMPOUND #7 on dominant or submissive behavior in pairs of rats competing for food are examined. It has been shown that anti-manic drugs, including anticonvulsants, decrease dominance and antidepressant drugs reduce submissiveness. This model uses dominant behavior as a model of mania and submissive behavior as a model of depression. The dominance and submissiveness is defined in a competition test and measured as the relative success of two food-restricted rats to gain access to a feeder. Rats are randomly paired and placed in an apparatus allowing them to compete for a food reward. The dominant-submissive relationship develops over a 2-week period. The submissive or dominant animals in pairs selected after 2 weeks of training were treated orally […] (b.i.d.) with COMPOUND #7 at 3 or 30 mg/kg for 5 weeks. The partner of the drug-treated animal was treated with vehicle.\nThe objective of this study was to determine if COMPOUND #7 is active in the Reduction of Submissive Behavior Model (RSBM) of depression and the Reduction of Dominant Behavior Model (RDBM) of mania. Measurements were made at two doses (3 and 30 mg/kg) after oral twice a day (b.i.d.) administration. The effect of the drug in the RSBM was compared to the effect of fluoxetine (10 mg/kg) and vehicle (0.5% methylcellulose). The effect of the drug in the RDBM was compared with the effect of lithium (100 mg/kg) and vehicle (0.5% methylcellulose). The endpoints measured were the development of a significant reduction of submissive or dominant behavior and its time of onset.\nThe DSR developed by two rats competing for food uses the apparatus in FIG. 1. The methodology and equipment are described in several publications. (See, Malatynska E, Goldenberg R, Shuck L, Haque A, Zamecki P, Crites G, Schindler N, Knapp R J. Reduction of submissive behavior in rats: a test for antidepressant drug activity. Pharmacology 2002; 64:8; Malatynska E, Rapp R, Crites G. Dominant behavior measured in a competition test as a model of mania. In: International Behavioral Neuroscience Society Meeting, ed. IBNSCapri, Italy, 2002, p 26.; Bonnet U. Moclobemide: therapeutic use and clinical studies. CNS Drug Rev 2003; 9:97; Danysz W, Plaznik A, Kostowski W, Malatynska E, Jarbe T U, Hiltunen A J, Archer T. Comparison of desipramine, amitriptyline, zimeldine and alaproclate in six animal models used to investigate antidepressant drugs. Pharmacol Toxicol 1988; 62:42; Knapp R J, Goldenberg R, Shuck C, Cecil A, Watkins J, Miller C, Crites G, Malatynska E. Antidepressant activity of memory-enhancing drugs in the reduction of submissive behavior model. Eur J Pharmacol 2002; 440:27; Kostowski W, Malatynska E, Plaznik A, Dyr W, Danysz W. Comparative studies on antidepressant action of alprazolam in different animal models. Pol J Pharmacol Pharm 1986; 38, 471; Malatynska E, De Leon I, Allen D, Yamamura Hi. Effects of amitriptyline on GABA-stimulated ^36Cl^− uptake in relation to a behavioral model of depression. Brain Res Bull 1995; 37:53; Malatynska E, Kostowski W. The effect of antidepressant drugs on dominance behavior in rats competing for food. Pol J Pharmacol Pharm 1984; 36:531; Malatynska E, Kostowski W. Desipramine antagonizes clonidine-induced suppression of dominance in rats: possible involvement of amygdaloid nuclei. Pol J Pharmacol Pharm 1988; 40:357).\nIn the experiments described in this report Sprague-Dawley rats weighing 160 to 180 g were used. Testing for the development of a DSR between paired rats begins with the random assignment of rats into pairs. Rats from pairs are housed separately between test sessions with other animals in groups of four. The animals are food-deprived overnight with free access to water.\nThe test involves placing each member of a pair in opposite chambers of the testing apparatus. These chambers are connected through a narrow tunnel with a small container of sweetened milk at the center. […]"}},
  "data": [
    {"smiles": "CN1C(=O)CN=C(c2ccccc2)c2cc(Cl)ccc21", "note": "[diazepam]", "values": [
      {"measurement": "effect of treatment of submissive rats (anxiolytic)", "setting": "submissive rats [1]; Pharmacology 2002, 64:8", "value": "ineffective"}
    ]},
    {"smiles": "CCCC(CCC)C(=O)[O-].[Na+]", "note": "[sodium valproate]", "values": [
      {"measurement": "competitive behavior of dominant rats", "setting": "dominant rats", "value": "significantly reduced competitive behavior"}
    ]},
    {"smiles": "NC(=O)N1c2ccccc2C=Cc2ccccc21", "note": "[carbamazepine]", "values": [
      {"measurement": "competitive behavior of dominant rats", "setting": "dominant rats", "value": "significantly reduced competitive behavior"}
    ]},
    {"smiles": "Clc1cccc(Cl)c1N=C1NCCN1", "note": "[clonidine]", "values": [
      {"measurement": "competitive behavior of dominant rats", "setting": "dominant rats", "value": "significantly reduced competitive behavior"}
    ]},
    {"smiles": "CC(N)Cc1ccccc1", "note": "(stereo not shown) [amphetamine, reference compound]", "values": [
      {"measurement": "effect of treatment of submissive rats (psychostimulant)", "setting": "submissive rats [2]; unpublished observation", "value": "ineffective"}
    ]},
    {"smiles": "CN(C)CCCN1c2ccccc2CCc2ccccc21", "note": "[imipramine]", "values": [
      {"measurement": "submissive behavior", "setting": "submissive rats [1]", "value": "reduced submissive behavior"}
    ]},
    {"smiles": "CNCCCN1c2ccccc2CCc2ccccc21", "note": "[desipramine]", "values": [
      {"measurement": "effect on submissive behavior after cessation of treatment", "setting": "submissive rats [1]; after cessation of treatment", "value": "attenuated"},
      {"measurement": "submissive behavior", "setting": "submissive rats [1]", "value": "reduced submissive behavior"}
    ]},
    {"smiles": "CNCCC(Oc1ccc(C(F)(F)F)cc1)c1ccccc1", "note": "(stereo not shown) [fluoxetine, reference compound]", "values": [
      {"measurement": "onset of significant effect on submissive rats (time of treatment)", "setting": "submissive rats [2]; 10 mg/kg i.p. once a day, previous experimental set", "value": 3, "unit": "weeks"},
      {"measurement": "submissive behavior", "setting": "submissive rats [1]", "value": "reduced submissive behavior"}
    ]}
  ]
}
